The source of these data is US9024041B2, “P38 MAP kinase inhibitors” (Respivert Ltd., priority 2010, dated 2015).

Structures are written as SMILES. Marks after values point to notes of the source that are not given here. A value given as a limit tells only on which side of the number the result lay.

Data set [1] concerns the target T1, p38 MAPKα isoform (MAPK14: Invitrogen) (Homo sapiens, UniProt Q16539).
T1 construct: purchased Invitrogen
Description: p38 MAPKα enzyme inhibition assay (FRET, Z-LYTE, via MAPKAP-K2 activation). Type of data set: biochemical. Particulars: 2 hr pre-incubation, ATP 10.0 μM; read-out: Enzyme Inhibition IC50 p38α.

For data set [2], the target named is T2, Recombinant, phosphorylated p38 MAPKγ (MAPK12:Invitrogen) (Homo sapiens, UniProt P53778).
T2 construct: purchased Invitrogen
T2 sequence (P53778 1-367): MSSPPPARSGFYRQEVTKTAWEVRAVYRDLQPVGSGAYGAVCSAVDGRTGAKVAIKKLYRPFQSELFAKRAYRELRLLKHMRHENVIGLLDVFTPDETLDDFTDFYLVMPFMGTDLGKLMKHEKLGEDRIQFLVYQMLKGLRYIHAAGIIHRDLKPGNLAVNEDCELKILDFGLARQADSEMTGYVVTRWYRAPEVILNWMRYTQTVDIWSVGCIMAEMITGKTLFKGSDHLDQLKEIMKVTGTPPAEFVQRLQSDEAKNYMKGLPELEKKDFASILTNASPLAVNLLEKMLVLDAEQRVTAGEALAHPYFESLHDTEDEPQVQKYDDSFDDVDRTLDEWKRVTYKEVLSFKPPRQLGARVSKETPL
Kind of data set: p38 MAPKγ enzyme inhibition assay (FRET, Z-LYTE). Type of data set: biochemical. Particulars: 2 hr pre-incubation, ATP 100 μM; read-out: Enzyme Inhibition IC50 p38γ.

For data set [3], the system named is LPS-induced TNFα release in THP-1 cells. Kind of data set: LPS-induced TNFα release in THP-1 cells. Particulars: Homo sapiens, 3 μg/mL LPS, 4 hr. It is filed as cell-based. The method, then: Cellular Potency as Determined by LPS-Induced TNFα Release in THP-1 Cells
THP-1 cells, a human monocytic cell line, were stimulated with 3 μg/mL of LPS (from E. Coli; 0111:B4, Sigma) for 4 hr and the supernatant collected for determination of the TNFα concentration by sandwich ELISA (Duo-set, R&D systems). The inhibition of TNFα production was calculated at each concentration by comparison with vehicle control. The 50% inhibitory concentration (IC50) was determined from the resultant concentration-response curve.

For data set [4], the system named is LPS-induced TNFα release in d-U937 cells. Description: LPS-induced TNFα release in d-U937 cells. Type of data set: cell-based. As to conditions: Homo sapiens, dU937, 4 h; read-out: LPS/TNFα REC50 d-U937. On the procedure: (§1) Cellular Potency as Determined by LPS-Induced TNFα/IL-8 Release in d-U937Cells
(§2) U937 cells, a human monocytic cell line, were differentiated to macrophage-type cells by incubation with phorbol myristate acetate (PMA; 100 ng/mL) for 48 to 72 hr. Cells were pre-incubated with final concentrations of test compound for 2 hr and were then stimulated with 0.1 μg/mL of LPS (from E. Coli: O111:B4, Sigma) for 4 hr. The supernatant was collected for determination of TNFα and IL-8 concentrations by sandwich ELISA (Duo-set, R&D systems). […] The relative 50% effective concentration (REC50) was determined from the resultant concentration-response curve. The inhibition of IL-8 production was calculated at each concentration of test compound by comparison with vehicle control. The 50% inhibitory concentration (IC50) was determined from the resultant concentration-response curve.

Data set [5] concerns LPS-induced IL-8 release in d-U937 cells. Description: LPS-induced IL-8 release in d-U937 cells. Particulars: Homo sapiens, dU937, 0.1 μg/mL LPS, 4 hr. Type of data set: cell-based. The method, then: as §1, §2
The test system of data set [6] is Poly I:C-induced ICAM-1 expression in BEAS2B cells. Kind of data set: Poly I:C-induced ICAM-1 induction in BEAS2B cells. Type of data set: cell-based. Particulars: Homo sapiens, BEAS-2B, poly I:C 1 μg/mL, 18 hr, read-out: PolyI:C/ICAM1 IC50 BEAS2B. On the procedure:
Cellular Potency as Determined by Poly I:C-Induced ICAM-1 Induction in BEAS2B Cells
Poly I:C (1 μg/mL) (Invivogen Ltd., San Diego, Calif.) was transfected into BEAS2B cells (human bronchial epithelial cells, ATCC) with Oligofectamine (Invitrogen, Carlsbad, Calif.). Cells were pre-incubated with final concentrations of test compounds for 2 hr and the level of ICAM1 expression on the cell surface was determined by cell-based ELISA. At a time point 18 hr after poly I:C transfection, cells were fixed with 4% formaldehyde in PBS and then endogenous peroxidase was quenched by the addition of 0.1% sodium azide and 1% hydrogen peroxide. Cells were washed with wash-buffer (0.1% Tween in PBS: PBS-Tween). and after blocking the wells with 5% milk in PBS-Tween for 1 hr, the cells were incubated with anti-human ICAM-1 antibody (Cell Signaling Technology, Danvers, Mass.) in 1% BSA PBS overnight at 4° C. The cells were washed with PBS-Tween and incubated with the secondary antibody (HRP-conjugated anti-rabbit IgG, Dako Ltd., Glostrup, Denmark). The ICAM-1 signal was detected by adding substrate and reading the absorbance at 450 nm against a reference wavelength of 655 nm using a spectrophotometer. The cells were then washed with PBS-Tween and total cell numbers in each well were determined by reading absorbance at 595 nm after Crystal Violet staining and elution by 1% SDS solution. The measured OD 450-655 readings were corrected for cell number by dividing with the OD595 reading in each well. The inhibition of ICAM-1 expression was calculated at each concentration of test compound by comparison with vehicle control. The 50% inhibitory concentration (IC50) was determined from the resultant concentration-response curve.

Data set [7] concerns Differentiated U937 cells. Description: MTT assay: cell viability on exposure to test compounds. Type of data set: cell-based, human. Particulars: percentage loss of cell viability vs vehicle; for MTT Assay (Viability) 4 h d-U937: 5% FCS; for MTT Assay (Viability) 24 h d-U937: 10% FCS. On the procedure:
MTT Assay: Determination of Cell Viability on Exposure to Test Compounds
Differentiated U937 cells were pre-incubated with each test compound under two protocols: the first for 4 hr in 5% FCS and the second in 10% FCS for 24 h. The supernatant was replaced with 200 μL of new media and 10 μL of MTT stock solution (5 mg/mL) was added to each well. After incubation for 1 hr the media were removed, 200 μL of DMSO was added to each well and the plates were shaken lightly for 1 hr prior to reading the absorbance at 550 nm. The percentage loss of cell viability was calculated for each well relative to vehicle (0.5% DMSO) treatment. Consequently an apparent increase in cell viability for drug treatment relative to vehicle is tabulated as a negative percentage.
For orientation: Tetrazolium assays rely on reduction of a dye to a coloured formazan, in cell work by metabolically active cells.

T1 sequence (Q16539 whole entry, canonical isoform): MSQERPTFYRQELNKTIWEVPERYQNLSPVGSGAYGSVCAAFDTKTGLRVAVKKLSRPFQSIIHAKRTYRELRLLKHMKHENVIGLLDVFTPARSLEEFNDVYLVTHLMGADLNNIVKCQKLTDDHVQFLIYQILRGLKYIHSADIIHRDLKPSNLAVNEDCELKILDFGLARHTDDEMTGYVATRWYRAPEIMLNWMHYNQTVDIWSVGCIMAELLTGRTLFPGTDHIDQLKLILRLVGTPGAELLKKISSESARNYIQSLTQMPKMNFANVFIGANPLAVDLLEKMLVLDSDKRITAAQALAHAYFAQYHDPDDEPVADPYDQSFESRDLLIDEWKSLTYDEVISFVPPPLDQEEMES

With `CNC(=O)Nc1cc(Oc2ccc(NC(=O)Nc3cc(C(C)(C)C)nn3-c3ccc(S(C)(=O)=O)cc3)c3ccccc23)ccn1` [Example 46, 1-(3-tert-butyl-1-(4-(methylsulfonyl)phenyl)-1H-pyrazol-5-yl)-3-(4-((2-(3-methylureido)pyridin-4-yl)oxy)naphthalen-1-yl)urea], the IC50 worked out at 36.2 nM in data set [1]; 104 nM in data set [2]; 2.3 nM in data set [3]; 2 nM in data set [5]; 41.2 nM in data set [6]. Besides, in data set [4], the EC50 worked out at 0.4 nM. In addition, in data set [7] (1 μg/mL), the “MTT Assay (Viability) 4 h d-U937” value is given as −12.6%. In data set [7] (1 μg/mL), the “MTT Assay (Viability) 24 h d-U937” value is on record as −47.9%.

Consider `COCC(=O)Nc1cc(Oc2ccc(NC(=O)Nc3cc(C(F)(F)C(F)(F)F)nn3-c3ccc(C)cc3)c3ccccc23)ccn1` [Example 30, 2-methoxy-N-(4-(4-(3-(3-(perfluoroethyl)-1-p-tolyl-1H-pyrazol-5-yl)ureido)naphthalen-1-yloxy)pyridin-2-yl)acetamide], for which the IC50 was 10.1 nM in data set [1]; greater than 15600 nM in data set [2]; 10.2 nM in data set [3]; 1910 nM in data set [5]; 1490 nM in data set [6]. Moreover, the EC50 in data set [4] stood at 108 nM. Besides, in data set [7] (1 μg/mL), the “MTT Assay (Viability) 4 h d-U937” value is given as −6.3%. For the same compound, the “MTT Assay (Viability) 24 h d-U937” value in data set [7] (1 μg/mL) is recorded as −46.1%.

Take `COc1ccc(-n2nc(C(C)(C)C)cc2NC(=O)Nc2ccc(Oc3ccnc(NC(=O)NC4CC4)c3)c3ccccc23)cc1` [Example 6, 1-(3-(tert-Butyl)-1-(4-methoxyphenyl)-1H-pyrazol-5-yl)-3-(4-(2-(3-cyclopropylureido)pyridin-4-yloxy)naphthalen-1-yl)urea]: the IC50 is 17.8 nM in data set [1]; 51.3 nM in data set [2]; 1.2 nM in data set [3]; 2.6 nM in data set [5]; 1 nM in data set [6]. Also, the EC50 in data set [4] was 19.4 nM. Further, in data set [7] (1 μg/mL), the “MTT Assay (Viability) 4 h d-U937” value was −10.7%. In data set [7] (1 μg/mL), the “MTT Assay (Viability) 24 h d-U937” value was −50.1%.

Consider `COCC(=O)Nc1cc(Oc2ccc(NC(=O)Nc3cc(C(C)(C)C)nn3-c3ccc(Cl)c(Cl)c3)c3ccccc23)ccn1` [Example 55, N-(4-(4-(3-(3-tert-butyl-1-(3,4-dichlorophenyl)-1H-pyrazol-5-yl)ureido)naphthalen-1-yloxy)pyridin-2-yl)-2-methoxyacetamide], for which the IC50 in data set [1] worked out at 14.9 nM; in data set [2], 102 nM; in data set [3], 4.3 nM; in data set [5], 5.5 nM; in data set [6], 14.7 nM. Besides, the EC50 in data set [4] was 0.8 nM. Moreover, the “MTT Assay (Viability) 4 h d-U937” value in data set [7] (1 μg/mL) is on record as −16.1%. The “MTT Assay (Viability) 24 h d-U937” value in data set [7] (1 μg/mL) was −71.1%.

Take `COCC(=O)Nc1cc(Oc2ccc(NC(=O)Nc3cc(C(C)(C)C)nn3-c3ccc(S(C)(=O)=O)cc3)c3ccccc23)ncn1` [Example 50, N-(6-(4-(3-(3-tert-butyl-1-(4-(methylsulfonyl)phenyl)-1H-pyrazol-5-yl)ureido)naphthalen-1-yloxy)pyrimidin-4-yl)-2-methoxyacetamide]: the IC50 turned out to be 9.5 nM in data set [1]; 39.3 nM in data set [2]; 13.3 nM in data set [3]; 272 nM in data set [5]; 100 nM in data set [6]. The EC50 in data set [4] worked out at 4.5 nM. For the same compound, in data set [7] (1 μg/mL), the “MTT Assay (Viability) 4 h d-U937” value was −8.0%. Also, the “MTT Assay (Viability) 24 h d-U937” value in data set [7] (1 μg/mL) is recorded as −10.4%.

With `COCC(=O)Nc1cc(Oc2ccc(NC(=O)Nc3cc(C(C)(C)C)nn3-c3ccc(O)c(Cl)c3)c3ccccc23)ccn1` [Example 52, N-(4-(4-(3-(3-tert-butyl-1-(3-chloro-4-hydroxyphenyl)-1H-pyrazol-5-yl)ureido)naphthalen-1-yloxy)pyridin-2-yl)-2-methoxyacetamide], the IC50 in data set [1] was 1.9 nM; in data set [2], 332 nM; in data set [3], 8.2 nM; in data set [5] it was greater than 1630 nM; in data set [6], 5.7 nM. Moreover, in data set [4], the EC50 turned out to be 16.3 nM. The “MTT Assay (Viability) 4 h d-U937” value in data set [7] (1 μg/mL) amounted to 8.5%. Further, the “MTT Assay (Viability) 24 h d-U937” value in data set [7] (1 μg/mL) is on record as −48.8%.

Consider `COCCOCC(=O)Nc1cc(C(=O)c2ccc(NC(=O)Nc3cc(C(C)(C)C)nn3-c3ccc(C)cc3)c3ccccc23)ccn1` [Example 22, N-(4-(4-(3-(3-(tert-Butyl)-1-(p-tolyl)-1H-pyrazol-5-yl)ureido)-1-naphthoyl)pyridin-2-yl)-2-(2-methoxyethoxy)acetamide], for which the IC50 is 14 nM in data set [1]; 7030 nM in data set [2]; 53.6 nM in data set [3]; 651 nM in data set [5]; 572 nM in data set [6]. Further, the EC50 in data set [4] amounted to 3 nM. The “MTT Assay (Viability) 4 h d-U937” value in data set [7] (10 μg/mL) was 21.1^b %. For the same compound, in data set [7] (10 μg/mL), the “MTT Assay (Viability) 24 h d-U937” value was 80.8^b %.

As to `COCC(=O)Nc1cc(COc2ccc(NC(=O)Nc3cc(C(C)(C)C)nn3-c3ccc(C)cc3)c(C)c2C)ccn1` [Example 58, N-(4-((4-(3-(3-tert-butyl-1-(p-tolyl)-1H-pyrazol-5-yl)ureido)-2,3-dimethylphenoxy)methyl)pyridin-2-yl)-2-methoxyacetamide], the IC50 in data set [1] was found to be 10.6 nM; in data set [2] it was 329 nM; in data set [3], 388 nM; in data set [5] it was 45.6 nM; in data set [6], 474 nM. Besides, the EC50 in data set [4] was 10.4 nM. For the same compound, the “MTT Assay (Viability) 4 h d-U937” value in data set [7] (1 μg/mL) was −2.8%. The “MTT Assay (Viability) 24 h d-U937” value in data set [7] (1 μg/mL) worked out at 12.0%.

On to `COCC(=O)Nc1cc(Oc2ccc(NC(=O)Nc3cc(C4CCOCC4)nn3-c3ccc(C)cc3)c3ccccc23)ccn1` [Example 28, 2-methoxy-N-(4-(4-(3-(3-(tetrahydro-2H-pyran-4-yl)-1-p-tolyl-1H-pyrazol-5-yl)ureido)naphthalen-1-yloxy)pyridin-2-yl)acetamide], for which the IC50 amounted to 1.4 nM in data set [1]; 9300 nM in data set [2]; 41.3 nM in data set [3]; 62.7 nM in data set [5]; 1580 nM in data set [6]. Further, in data set [4], the EC50 worked out at 7.1 nM. Moreover, in data set [7] (1 μg/mL), the “MTT Assay (Viability) 4 h d-U937” value is −23.7%. Besides, in data set [7] (1 μg/mL), the “MTT Assay (Viability) 24 h d-U937” value is on record as −34.5%.
